Experimental findings from US20040127518A1, “Modulation of anxiety through blockade of anandamide hydrolysis” (priority 2002, published 2004) are described below.

In one assay the target is T1, FAAH (Rattus norvegicus, UniProt P97612).
T1 sequence (P97612 1-579): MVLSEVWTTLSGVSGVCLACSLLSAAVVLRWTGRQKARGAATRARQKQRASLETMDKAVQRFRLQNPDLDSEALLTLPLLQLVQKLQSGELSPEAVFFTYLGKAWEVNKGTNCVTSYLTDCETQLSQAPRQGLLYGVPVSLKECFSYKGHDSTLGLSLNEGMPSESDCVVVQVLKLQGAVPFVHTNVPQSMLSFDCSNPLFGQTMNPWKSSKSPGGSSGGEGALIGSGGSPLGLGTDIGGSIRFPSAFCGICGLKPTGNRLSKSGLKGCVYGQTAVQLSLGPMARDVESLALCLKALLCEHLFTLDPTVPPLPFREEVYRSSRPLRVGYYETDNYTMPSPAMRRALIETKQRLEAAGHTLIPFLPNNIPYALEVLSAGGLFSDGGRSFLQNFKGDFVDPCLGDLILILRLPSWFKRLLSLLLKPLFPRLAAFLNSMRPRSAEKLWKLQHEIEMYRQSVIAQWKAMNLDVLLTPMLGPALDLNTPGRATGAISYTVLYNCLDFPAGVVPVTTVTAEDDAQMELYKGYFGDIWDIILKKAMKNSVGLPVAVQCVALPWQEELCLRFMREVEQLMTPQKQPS
Kind of assay: biochemical. The format is biochemical. The arrangement: from tissue; host or cells: rat brain (membrane fraction of homogenate; Wistar rats).

Assay [1] addresses T2, electric eel acetylcholinesterase (Electrophorus electricus, UniProt O42275). The note with it: read-out: Cholinesterase IC50; Table 3; acetylcholinesterase.
Text: (§1) We prepared cell fractions from rat brain homogenates, and assayed membrane FAAH activity and cytosol MGL activity using anandamide [ethanolamine-3H] (American Radiolabeled Chemicals, ARC (St. Louis Mo.), 60 Ci/mmol) and 2-mono-oleoyl-glycerol-[glycerol-1,2,3^−3H] (ARC, St. Louis Mo., 20 Ci/mmol), respectively, as substrates (Dinh, T. Proc. Natl. Acad. Sci. U.S.A. (2002)). We conducted [^3H]anandamide transport assays in human astrocytoma cells (Piomelli, D. et al., Proc. Natl. Acad. Sci. U.S.A., 96, 5802-5807 (1999)); CB1 and CB2 binding assays in rat cerebellar membranes and CB2-overexpressing Chinese hamster ovary cells (Receptor Biology-Perkin Elmer, Wellesley, Mass.), respectively, using [^3H]WIN-55212-2 (NEN-Dupont, Boston, Mass., 40-60 Ci/mmol) as a ligand (Devane, W. A. et al. Science, 258, 1946-1949 (1992)); cholinesterase assays with a commercial kit (Sigma, St. Louis, Mo.), using purified enzymes (electric eel acetylcholinesterase type V-S and horse serum cholinesterase; both from Sigma, St. Louis, Mo.) and following manufacturer's instructions.
Another assay concerns rat cortical neurons. The assay is described as follows: Transport, accumulation and release of non-metabolized [3H]anandamide in cortical neurons. The class given is cell-based. The note with it: AM404 10 μM.
Assay [2] deals with T2, electric eel acetylcholinesterase. The assay is described as follows: biochemical.
Text: as §1
The mark [3] stands for this setting: Table 3, read-out: Amidohydrolase IC50.
Setting [4] is: Table 4, FAAH IC50, read-out: Inhibition of Amidohydrolase IC50.

The term IC50 denotes the midpoint of a concentration-inhibition curve.

Entries after “also recorded” stand apart in the source; their conditions may differ. Like-named read-outs stand apart in the source and are kept apart here. Where only a bound is given, the exact number is not on record here.

T2 sequence (O42275 whole entry): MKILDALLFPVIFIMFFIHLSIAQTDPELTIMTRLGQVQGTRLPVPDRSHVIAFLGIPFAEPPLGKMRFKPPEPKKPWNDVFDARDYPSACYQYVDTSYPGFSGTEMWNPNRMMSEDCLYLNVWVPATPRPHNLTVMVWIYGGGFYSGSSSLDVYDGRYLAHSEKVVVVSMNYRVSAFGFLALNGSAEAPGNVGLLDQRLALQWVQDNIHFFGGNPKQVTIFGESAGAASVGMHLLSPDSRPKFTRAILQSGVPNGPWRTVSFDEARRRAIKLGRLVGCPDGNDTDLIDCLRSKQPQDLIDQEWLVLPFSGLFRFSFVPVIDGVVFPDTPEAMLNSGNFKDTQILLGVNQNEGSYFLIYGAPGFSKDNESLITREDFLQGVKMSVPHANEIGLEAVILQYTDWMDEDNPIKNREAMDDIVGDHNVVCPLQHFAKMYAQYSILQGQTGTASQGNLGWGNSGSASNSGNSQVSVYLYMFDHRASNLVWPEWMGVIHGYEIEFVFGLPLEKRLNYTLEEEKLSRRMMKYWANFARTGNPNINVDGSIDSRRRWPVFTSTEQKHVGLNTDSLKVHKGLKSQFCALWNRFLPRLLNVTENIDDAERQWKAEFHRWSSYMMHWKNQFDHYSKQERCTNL

As to “2.3-dihyrdo-2.2-dimethyl-7-benzogumaol N-methylcarbamate [PL#15, reference compound]”, the results for the IC50 (on FAAH (setting [3]); on FAAH (setting [4]); in assay [1]) were greater than 30000 nM, greater than 30000 nM and 0.56 µM, respectively.
4-fluoraphenyl N-butylcarbamate [PL#12]: the IC50 at FAAH (setting [3]) is 11500 nM; at FAAH (setting [4]) it was 11500 nM; in assay [1], greater than 30 µM.
As for `CCCCC/C=C\C/C=C\C/C=C\C/C=C\CCCC(=O)Nc1ccc(O)cc1` [AM404, N-(4-hydroxyphenyl)arachidonamide, reference compound], the “accumulation of non-metabolized [3H]anandamide in neurons” value in the assay with rat cortical neurons (4-min incubation, UCM532 3 μM, UCM597 10 nM) is recorded as “significantly reducing; also recorded: reduces”. Also, the “effect on [3H]anandamide release from UCM597-treated neurons” value in the assay on rat cortical neurons (15-min incubation) is listed as “not inhibited”.
On to `O=C(NC1CCCCC1)Oc1ccc(-c2ccccc2)cc1` [PL#5, 4-biphenyl N-cyclohexylcarbamate], for which the IC50 is greater than 30 µM in assay [2], 2300 nM on FAAH (read-out: Amidohydrolase IC50) and 2300 nM on FAAH (read-out: Inhibition of Amidohydrolase IC50).
On to `Cc1ccc(OC(=O)NC2CCCCC2)cc1` [PL#6, p-toly-N-cyclohexy carbamate], for which the IC50 in assay [2] is greater than 30 µM; at FAAH (setting [3]), 5400 nM; at FAAH (setting [4]), 5400 nM.
For `O=C(Nc1ccc(F)cc1)Oc1ccc(OCc2ccccc2)cc1` [PL#8, 4-(benzyloxy) phenyl N-(4-fluorophenyl)carbamate], the IC50 in assay [2] was greater than 30 µM; at FAAH (setting [3]), greater than 30000 nM; at FAAH (setting [4]) it was greater than 30000 nM.
Consider `CC(C)(C)NC(=O)Oc1ccc(-c2ccccc2)cc1Cl` [PL#10, 3-chloro-4-biphenylyl N-tert-butylcarbamate], for which the results for the IC50 (in assay [2]; at FAAH (setting [3]); on FAAH (setting [4])) were greater than 30 µM, greater than 30000 nM and greater than 30000 nM, respectively.
`O=C(NC1CCCCC1)Oc1ccc2ccccc2c1` [PL#11, 2-naphthyl N-cyclohexylcarbamate]: the IC50 in assay [2] was greater than 30 µM; at FAAH (setting [3]), 330 nM; on FAAH (setting [4]), 330 nM; on FAAH (rat brain membranes, read-out: IC50), 324 ± 31 nM.
Turning to `CCCCOC(=O)Oc1ccc(C(=O)Oc2ccc(OC)cc2)cc1` [PL#17, O-butyl 4-(4-methoxyphenoxycarbonyl)-phenyl carbonate], the IC50 was greater than 30 µM in assay [2], 9100 nM at FAAH (setting [3]) and 9100 nM at FAAH (setting [4]).
With `CNC(=O)Oc1cccc2ccccc12` [PL#18, carbaryl, reference compound], the “inhibition of FAAH activity (in words)” value against FAAH is given as “ineffective”. Besides, the IC50 against FAAH (IC50(nM)) is greater than 100000 nM; in assay [1], 3.1 µM.
For hexyl-N-cyclohexyl carbamate [PL#9], the IC50 on FAAH (setting [3]) was 3700 nM; at FAAH (setting [4]), 3700 nM; in assay [1] it was greater than 30 µM.
